SMILES strings stand for the structures.

The text below walks through data of publication PMC13224100, “Esterase-Responsive Mitochondria-Targeted Hydropersulfide Donors Mitigate Doxorubicin Cardiotoxicity While Preserving Anticancer Activity” (Angewandte Chemie (International ed. in English), 2025).

What all share (experiment): Effect of RSSH donors on anticancer activity of DOX, CCK-8
What all share (format): cell-based

One data set has as its system HepG2 cells. To be noted: 4 h pretreatment, then 24 h co-treatment with DOX 5 μM. The procedure:
(§1) We next evaluated the effects of RSSH donors on DOX activity in three representative cancer cell lines: triple-negative breast cancer MDA-MB-468, ER-positive breast cancer MCF-7, and hepatocellular carcinoma HepG2.
(§2) Figure 5. Effect of RSSH donors on anticancer activity of DOX in cancer cells. MDA-MB-468, MCF-7, and HepG2 cells were pretreated with APT-1 or its mitochondria-targeted analog APT-1-TPP for 4 h, followed by co-treatment with DOX (5 μM for MDA-MB-468 and HepG2; 15 μM for MCF-7) for an additional 24 h. Results are presented as mean ± SEM, n = 3; *p < 0.05, **p < 0.01, ***p < 0.001, ****p < 0.0001. Ctl = vehicle-treated group (0.01% DMSO in medium). […]
(§3) Cytoprotective Effects of RSSH Donors against Doxorubicin Toxicity
(§4) Cytoprotective studies were performed as previously described.[8] Briefly, H9c2 cells, HepG2 cells, MDA-MB-468 cells, and MCF-7 cells were seeded at a density of 7 x 10^3 cells/well. […] Additionally, in the vehicle control group, cells were treated with medium (DMEM with 10% FBS) containing 0.01% DMSO only. The cells were then further incubated for an additional 4 h before being treated with DOX (10 μL/well, with final concentration of 5 μM). After a 24 h co-incubation with DOX, each well was carefully washed three times with PBS (pH 7.4) and 100 μL o f F B S-free medium containing 10% v/v CCK-8 (Dojindo) was added. The plates were then incubated for 1-2 h before measuring absorbance at […]
(§5) The relative % cell viability was calculated as 100 times the ratio of Abs450 (RSSH donor + DOX-exposed) to Abs450 (vehicle, non-DOX-exposed). Each treatment condition was performed in 6 technical replicates per biological replicate, and the experiment was independently repeated three times (n = 3 biological replicates). Data are presented as mean ± SEM. […]

Another data set relates to MDA-MB-468 cells. To be noted: 4 h pretreatment, then 24 h co-treatment with DOX 5 μM. The procedure: as §1, §2, §3, §4, §5
For another data set, the system named is MCF-7 cells. To be noted: 4 h pretreatment, then 24 h co-treatment with DOX 15 μM. The protocol: as §1, §2, §3, §4, §5

In the case of `COC(=O)C(NC(C)=O)C(C)(C)SSC(=O)N(C)CCOC(C)=O` (stereo not shown) [APT-1], the “effect on DOX cytotoxicity” value in the data set on HepG2 cells is “no protective effect”; in the data set with MDA-MB-468 cells, “did not provide cytoprotection”; with MCF-7 cells it was “did not blunt DOX cytotoxicity”.
As to `CC(=O)NC(C(=O)N(C)CCC[P+](c1ccccc1)(c1ccccc1)c1ccccc1)C(C)(C)SSC(=O)N(C)CCOC(C)=O` (stereo not shown) [APT-1-TPP], the “effect on DOX cytotoxicity” value in the data set on HepG2 cells is listed as “potentiated DOX cytotoxicity in a dose-dependent manner”; in the data set with MDA-MB-468 cells it was “no protective effect”; in the data set with MCF-7 cells it was “synergistically enhanced its activity”. In the data set with MDA-MB-468 cells, the “concentration that modestly enhanced DOX's anticancer activity” value is no less than 100 µM.
